Data: publication PMC10224004, “Modulation of Distribution and Diffusion through the Lipophilic Membrane with Cyclodextrins Exemplified by a Model Pyridinecarboxamide Derivative” (Pharmaceutics, 2023)
Where “and” joins values, the source holds several entries; their conditions need not be identical. Equal entries are not always repeated.

Tests used:
[1] = Shake-flask solubility in n-hexane and dissolution thermodynamics; format: physicochemical; conditions: T 290.2 K; value = S2 × 10^3
[2] = Thermodynamic functions of the hypothetical n-hexane → 1-octanol transferring; format: physicochemical
Description: (§1) The apparent dissolution Gibbs energies ( ΔGsol ) and entropies ( ΔSsol ) were calculated at a standard temperature of 298.2 K and 310.2 K:(4) ΔGsol298.2/310.2=−RT(lnX2298.2/310.2) (5) ΔGsol298.2/310.2=ΔHsol0−TΔSsol298.2/310.2 where R is the universal gas constant.
The following conclusions can be derived from Table 3. The dissolution process is more favorable in 1-octanol as compared to n-hexane. In both solvents it is determined by the enthalpy, but the difference between the enthalpy and entropy contributions is not essential (especially in 1-octanol). The greater positive enthalpy term is a driving force of the unfavorable dissolution processes in these two solvents. A more than two-fold difference ΔHsol > TΔSsol exists in n-hexane, and a favorable positive entropy value is not enough to overlap the enthalpy one. From the dissolution thermodynamic functions, the hypothetical transfer n-hexane→1-octanol simulating the blood-brain penetration can be disclosed. As follows from Table 3, the transferring is favorable (negative ΔGtr value), in that the lower temperature facilitates the process. The hypothetical transition from n-hexane to 1-octanol is driven and determined by the negative enthalpy (~80%). A small negative entropy contribution— TΔStr indicates some ordering of the system upon the movement of the IPN molecules from n-hexane to 1-octanol.

[3] = parameters: method as in PMID 12750026; conditions: 293.2 K (20 °C); cited from earlier work
[4] = ΔlogD parameter (logDapp oct/buf − logDapp hex/buf); format: physicochemical; conditions: 310.2 K; pH 7.4; cyclodextrin in buffer phase as in the label
Description: Apparent distribution coefficients of the compounds were measured in two systems: 1-octanol/buffer pH 7.4 and n-hexane/buffer pH 7.4 by the shake-flask technique at 310.2 ± 0.5 K in the absence (for IPN, INZ and iNAM) and in the presence of cyclodextrins (HP-β-CD and M-β-CD) in the aqueous phase (for IPN only). The concentrations of cyclodextrins were: 0.0115 M, 0.025 M and 0.035 M. The experiments were carried out according to the literature. In brief, the following experimental procedure was performed. Aqueous buffer pH 7.4 and organic solvent (1-octanol or n-hexane) were mixed during 48 h to obtain mutually saturated phases. The stock solutions containing the drug were prepared in buffer pH 7.4 saturated with the organic solvent. Both aliquots of the aqueous stock solution and organic solvent were placed in screwed glass vials and mixed at 310.2 ± 0.5 K during 3 days. The concentrations of the stock solutions were approximately 6.0 × 10^−3 M for both systems. […] The drug concentrations were determined using spectrophotometer (Cary-50 Varian, Palo Alto, CA, USA, Software Version 3.00 (339)). […] The distribution coefficients were calculated using the following equation:(6) DappOrg/buf=C2Org/buf⋅V^buf/Org/C2buf/Org⋅V^Org/buf where DappOrg/buf is the distribution coefficient calculated from the concentrations of the compounds expressed in molar scale, C2Org/buf and C2buf/Org are the molar concentrations of the drug in the mutually saturated organic solvent/buffer and buffer/organic solvent phases, respectively, and V^buf/Org and V^Org/buf are the volumes of the saturated buffer and organic solvent phases, respectively. […] As Abraham et al. stated, the difference between the distribution parameters in these systems ( ΔlogD ) can be applied to assess the specific interactions including a hydrogen-bonding impact to the drug transport properties and can be calculated as follows:(7) ΔlogD=logDappoct/buf−logDapphex/buf

[5] = Shake-flask solubility in 1-octanol and dissolution thermodynamics; format: physicochemical; conditions: for Molar solubility S2 × 10^1 in 1-Octanol: value = S2 × 10^1
Description: The solubility of the investigated drugs in 1-octanol and n-hexane was determined by the shake-flask technique. To this end, the glass vials containing the solutions with the excess amount of the compound were placed in an air thermostat and stirred at a predetermined temperature for no less than 24 h (equilibrium state). After this, the suspensions were left for 5 h or more to precipitate the undissolved drug and centrifuged (Biofuge pico, Thermo Electron LED GmbH, Langenselbold, Germany) at a predetermined temperature during 20 min (10,000 rpm). The aliquots of the clear solutions were taken and examined via a spectrophotometer (Cary-50 Varian, Palo Alto, CA, USA, Software Version 3.00 (339)). The molar concentrations of the compounds in the solvents were calculated using calibration curves at the appropriate wavelength characteristic for each substance. The experimental results were reported as an average of at least three replicated experiments with an accuracy of 2–4%. In order to evaluate the thermodynamic parameters of the IPN dissolution in 1-octanol and n-hexane, the molar solubility ( S2 ) was recalculated to the mole fraction ( X2 ) by the equation:(1) X2=M2S2/S2(M1−M2)+1000ρ, where M1 and M2 are the molar masses of IPN and organic solvent, respectively, and ρ (g∙cm^−3) is the density of the pure solvents. The linear functions describing the temperature dependences of the solubility within the temperature interval from 293.2 ± 0.5 K to 313.2 ± 0.5 K for both organic solvents were derived:(2) lnX2=A+B/T
The apparent solution enthalpies ΔHsol0 were determined by the van’t Hoff equation:(3) ∂(lnX2)/∂T=ΔHsol0/RT^2
as §1

[6] = Shake-flask distribution in the 1-octanol/buffer pH 7.4 system; format: physicochemical
Description: Apparent distribution coefficients of the compounds were measured in two systems: 1-octanol/buffer pH 7.4 and n-hexane/buffer pH 7.4 by the shake-flask technique at 310.2 ± 0.5 K in the absence (for IPN, INZ and iNAM) and in the presence of cyclodextrins (HP-β-CD and M-β-CD) in the aqueous phase (for IPN only). The concentrations of cyclodextrins were: 0.0115 M, 0.025 M and 0.035 M. The experiments were carried out according to the literature. In brief, the following experimental procedure was performed. Aqueous buffer pH 7.4 and organic solvent (1-octanol or n-hexane) were mixed during 48 h to obtain mutually saturated phases. The stock solutions containing the drug were prepared in buffer pH 7.4 saturated with the organic solvent. Both aliquots of the aqueous stock solution and organic solvent were placed in screwed glass vials and mixed at 310.2 ± 0.5 K during 3 days. The concentrations of the stock solutions were approximately 6.0 × 10^−3 M for both systems. The volumes of the phases were 3:3 in the 1-octanol/buffer pH 7.4 systems and 6:3 and 10:3 in the n-hexane/buffer pH 7.4 systems, without and with cyclodextrins, respectively. After mixing, the equilibrium was achieved; the vials were maintained at 310.2 ± 0.5 K, and the phases were separated from each other. The drug concentrations were determined using spectrophotometer (Cary-50 Varian, Palo Alto, CA, USA, Software Version 3.00 (339)). The experiments were carried out at least four-fold with an accuracy of 2–4%. The distribution coefficients were calculated using the following equation:(6) DappOrg/buf=C2Org/buf⋅V^buf/Org/C2buf/Org⋅V^Org/buf where DappOrg/buf is the distribution coefficient calculated from the concentrations of the compounds expressed in molar scale, C2Org/buf and C2buf/Org are the molar concentrations of the drug in the mutually saturated organic solvent/buffer and buffer/organic solvent phases, respectively, and V^buf/Org and V^Org/buf are the volumes of the saturated buffer and organic solvent phases, respectively. In addition, the ΔlogD parameters were estimated taking into account the distribution coefficients both in the 1-octanol/buffer pH 7.4 and n-hexane/buffer H 7.4 systems. As Abraham et al. stated, the difference between the distribution parameters in these systems ( ΔlogD ) can be applied to assess the specific interactions including a hydrogen-bonding impact to the drug transport properties and can be calculated as follows:(7) ΔlogD=logDappoct/buf−logDapphex/buf

[7] = 310.2 K, cyclodextrin in buffer phase as in the label
[8] = V(oct):V(buf)= 3:3, molar concentration × 10^3

Compound: CC(C)NNC(=O)c1ccncc1 [IPN, N′-isopropyl isonicotinic hydrazide]
- Molar solubility S2 × 10^3 in n-Hexane [1]: 0.72 ± 0.01 × 10^3 (M)
- TΔStr298.2 ([2]; 298.2 K): -0.884 kcal/mol
- ΔGtr298.2 ([2]; 298.2 K): -3.78 kcal/mol
- ζHtr ([2]; 298.2 K (first value of cell)): 84.1%
- ΔHtr298.2/310.2 ([2]; 298.2 K and 310.2 K): -4.66 kcal/mol
- TΔStr310.2 ([2]; 310.2 K): -0.932 kcal/mol
- ΔGtr310.2 ([2]; 310.2 K): -3.73 kcal/mol
- ζHtr ([2]; 310.2 K (second value of cell)): 83.3%
- log Dexpoct/pH7.4 [3]: 0.35 ± 0.10
- ΔlogD [4]: 3.33
- TΔSsol298.2 ([5]; 1-octanol, 298.2 K): 3.42 ± 0.096 kcal/mol
- ΔGsol298.2 ([5]; 1-octanol, 298.2 K): 1.48 ± 0.024 kcal/mol
- ζHsol ([5]; 1-octanol, 298.2 K (first value of cell)): 58.9%
- ΔHsol298.2/310.2 ([5]; 1-octanol, 298.2 K and 310.2 K): 4.9 ± 0.048 kcal/mol
- TΔSsol310.2 ([5]; 1-octanol, 310.2 K): 3.56 ± 0.096 kcal/mol
- ΔGsol310.2 ([5]; 1-octanol, 310.2 K): 1.34 ± 0.024 kcal/mol
- ζHsol ([5]; 1-octanol, 310.2 K (second value of cell)): 57.9%
- solubility higher in 1-octanol than in n-hexane ([5]; 310.2 K, ratio of molar solubilities): 338 fold
- Molar solubility S2 × 10^1 in 1-Octanol ([5]; T 293.2 K): 4.44 ± 0.09 × 10^1 (M)
- Molar solubility S2 × 10^1 in 1-Octanol ([5]; T 298.2 K): 5.06 ± 0.06 × 10^1 (M)
- Molar solubility S2 × 10^1 in 1-Octanol ([5]; T 303.2 K): 5.73 ± 0.11 × 10^1 (M)
- Molar solubility S2 × 10^1 in 1-Octanol ([5]; T 310.2 K): 6.86 ± 0.18 × 10^1 (M)
- Dappoct/buff [6, 7]: 2.651 ± 0.093
- logDappoct/buff [6, 7]: 0.423 ± 0.015 and 0.423
- Molar concentration C2 buf/oct ∙10^3 (aqueous phase) [6, 8]: 1.69 ∙10^3
- Molar concentration C2 oct/buf ∙10^3 (organic phase) [6, 8]: 4.48 ∙10^3
